From patent US9938273B2 (Plexxikon Inc., priority 2015, dated 2018)

Legend:
[1] = test system: MOLM-14 D835Y cells, FLT3 ITD and FLT3 D835Y; test: Cell proliferation assay (CellTiter-Glo), MOLM-14 D835Y; type: cell-based; settings: Homo sapiens, 72 h, 3d-Growth, GMean
Method in brief: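 Three-day growth at 37 °C, 5% CO2 under compound (1 μM top final, 1:3 dilutions, eight points, 0.2% DMSO), read as ATP luminescence by CellTiter-Glo for IC50. Cells: MOLM-14 with FLT3 ITD plus D835Y or F691L, and IL-3-deprived Ba/F3 transfected with FLT3 ITD/D835Y, 1×10^4 per well.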

FLT3-ITD = target: T1, FLT3-ITD (Homo sapiens, UniProt P36888); test: AlphaScreen kinase assay with recombinant enzyme, FLT3-ITD; type: biochemical; settings: 8pt; read-out: FLT3_ITD 8pt: IC50
T1 sequence (P36888 1-993): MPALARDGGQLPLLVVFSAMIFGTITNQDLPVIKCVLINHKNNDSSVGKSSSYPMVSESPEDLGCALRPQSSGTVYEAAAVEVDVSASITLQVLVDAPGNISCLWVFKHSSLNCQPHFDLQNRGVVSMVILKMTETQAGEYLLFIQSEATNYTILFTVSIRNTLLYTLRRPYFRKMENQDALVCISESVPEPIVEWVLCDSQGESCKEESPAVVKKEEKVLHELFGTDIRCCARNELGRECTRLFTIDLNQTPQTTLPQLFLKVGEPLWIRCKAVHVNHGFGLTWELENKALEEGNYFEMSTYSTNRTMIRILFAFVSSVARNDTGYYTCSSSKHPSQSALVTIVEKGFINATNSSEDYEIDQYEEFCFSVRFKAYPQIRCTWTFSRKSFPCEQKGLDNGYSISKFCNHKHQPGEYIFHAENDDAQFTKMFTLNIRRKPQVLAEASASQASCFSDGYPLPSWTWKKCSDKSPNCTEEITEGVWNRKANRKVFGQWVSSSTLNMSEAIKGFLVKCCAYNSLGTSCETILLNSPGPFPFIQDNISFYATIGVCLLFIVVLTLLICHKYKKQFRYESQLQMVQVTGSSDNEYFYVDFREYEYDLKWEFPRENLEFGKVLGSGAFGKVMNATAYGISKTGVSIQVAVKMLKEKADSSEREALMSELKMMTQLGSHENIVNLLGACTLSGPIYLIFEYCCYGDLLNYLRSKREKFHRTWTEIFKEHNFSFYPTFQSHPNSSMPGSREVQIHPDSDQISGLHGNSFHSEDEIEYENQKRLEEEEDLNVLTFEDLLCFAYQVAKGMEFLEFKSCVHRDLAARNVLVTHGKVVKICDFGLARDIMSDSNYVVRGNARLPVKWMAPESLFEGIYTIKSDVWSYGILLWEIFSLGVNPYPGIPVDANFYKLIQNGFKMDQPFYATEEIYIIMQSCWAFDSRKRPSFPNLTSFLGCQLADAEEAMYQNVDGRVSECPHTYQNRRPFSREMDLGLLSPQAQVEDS
Method in brief: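 Read-out: AlphaScreen proximity signal at 580 nm (680 nm excitation), lost as peptide tyrosine phosphorylation falls. Substrate Biotin-GG(EEEEY)10EE at 30 nM; IC50 runs at 10 μM (FLT3 mutants) or 100 μM (c-KIT) final. Donor beads 20 min, then acceptor beads 60 min, room temperature.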

Row | Compound | IC50 [1] [µM] | IC50 (FLT3-ITD) [µM]
1 | CC(C)(C#N)NC(=O)c1cccc(-c2cnc3[nH]c(C4=CCSCC4)cc3c2)n1 [Compound P-0180, N-(1-cyano-1-methyl-ethyl)-6-[2-(3,6-dihydro-2H-thiopyran-4-yl)-1H-pyrrolo[2,3-b]pyridin-5-yl]pyridine-2-carboxamide] | 0.0001 to 10 | 0.0001 to 10
2 | CC(C)(C#N)NC(=O)c1cccc(-c2cnc3[nH]c(C4=CCN(C(=O)C5CC5)CC4)cc3c2)n1 [Compound P-0181, N-(1-cyano-1-methyl-ethyl)-6-[2-[1-(cyclopropanecarbonyl)-3,6-dihydro-2H-pyridin-4-yl]-1H-pyrrolo[2,3-b]pyridin-5-yl]pyridine-2-carboxamide] | 0.0001 to 10 | 0.0001 to 10
3 | CC(C)(C#N)NC(=O)c1cccc(-c2cnc3[nH]c(C4=CCNCC4)cc3c2)n1 [Compound P-0182, N-(1-cyano-1-methyl-ethyl)-6-[2-(1,2,3,6-tetrahydropyridin-4-yl)-1H-pyrrolo[2,3-b]pyridin-5-yl]pyridine-2-carboxamide] | 0.0001 to 10 | 0.0001 to 10
4 | CC(C)(C#N)NC(=O)c1cccc(-c2cnc3[nH]c(-c4cn[nH]c4)cc3c2)n1 [Compound P-0183, N-(1-cyano-1-methyl-ethyl)-6-[2-(1H-pyrazol-4-yl)-1H-pyrrolo[2,3-b]pyridin-5-yl]pyridine-2-carboxamide] | 0.0001 to 10 | 0.0001 to 10
5 | CC(C)(C#N)NC(=O)c1cccc(-c2cnc3[nH]c(-c4cnn(C5CCNCC5)c4)cc3c2)n1 [Compound P-0187, N-(1-cyano-1-methyl-ethyl)-6-[2-[1-(4-piperidyl)pyrazol-4-yl]-1H-pyrrolo[2,3-b]pyridin-5-yl]pyridine-2-carboxamide] | 0.0001 to 10 | 0.0001 to 10
6 | CC(C)(C#N)NC(=O)c1cccc(-c2cnc3[nH]c(C4=CCN(S(=O)(=O)C5CC5)CC4)cc3c2)n1 [Compound P-0188, N-(1-cyano-1-methyl-ethyl)-6-[2-(1-cyclopropylsulfonyl-3,6-dihydro-2H-pyridin-4-yl)-1H-pyrrolo[2,3-b]pyridin-5-yl]pyridine-2-carboxamide] | 0.0001 to 10 | 0.0001 to 10
7 | CC(C)(C#N)NC(=O)c1cccc(-c2cnc3[nH]c(-c4ccc(C5CC5)cc4)cc3c2)n1 [Compound P-0189, N-(1-cyano-1-methyl-ethyl)-6-[2-(4-cyclopropylphenyl)-1H-pyrrolo[2,3-b]pyridin-5-yl]pyridine-2-carboxamide] | 0.0001 to 10 | 0.0001 to 10
